# Assay results taken from patent publication US9944740B2, “Sugar containing, amphiphilic copolymers” (REGENTS OF THE UNIVERSITY OF MINNESOTA, priority 2013, dated 2018).
# What was measured:
# [1] = Probucol dissolution study (spray dried dispersions or crystalline API) in phosphate buffer pH 6.5 with simulated intestinal fluid powder, 37° C., HPLC; type: physicochemical; conditions: pH 6.5, fassif, thermodynamic from solid
# Method: (§1) Samples (either spray dried dispersions or crystalline API as received) were weighed into 2.0 mL conical microcentrifuge tubes in duplicate. Phosphate buffer solution (82 mM sodium chloride, 20 mM sodium phosphate dibasic, 47 mM potassium phosphate monobasic, 0.5 wt % simulated intestinal fluid powder, pH 6.5) at 37° C. was added in an amount that would produce a final concentration of drug of 1000 mg/L if all material was fully dissolved (e.g., 7.2 mg of spray dried dispersion consisting of 1.8 mg griseofulvin and 5.4 mg polymer was diluted with 1.8 mL buffer solution). Samples were vortexed 1 min and set in an isothermal aluminum sample holder set at 37° C. At each time point, samples were centrifuged 1 min at >13,000×g (g=gravitational force on earth), and a 50 μl aliquot was removed and diluted with 250 μl methanol. The samples were again vortexed 30 s and held at 37° C. until the next time point. Drug concentration in each aliquot was determined by reverse phase HPLC.
# Probucol and phenytoin concentrations were quantified using a Agilent 1260 Infinity Quaternary HPLC equipped. […] A 10 μL aliquot of sample was injected, and the column effluent was detected at 241 nm for probucol (eluted at 2.90 min) and 225 nm for phenytoin (eluted at 1.40 min) with a UV detector (1260 Infinity Multiple Wavelength Detector, Agilent). […]
# [2] = Phenytoin dissolution study (spray dried dispersions or crystalline API) in phosphate buffer pH 6.5 with simulated intestinal fluid powder, 37° C., HPLC; type: physicochemical; conditions: crystalline phenytoin
# Method: as §1
# Probucol and phenytoin concentrations were quantified using a Agilent 1260 Infinity Quaternary HPLC equipped. The HPLC consisted of a reversed-phase EC-C18 column (Poroshell 120, 4.6×50 mm, 2.7 μm, Agilent, USA). The mobile phase was acetonitrile: water 96:4 for probucol and acetonitrile: water 40:60 for phenytoin, and the flow rate was 1.0 mL/min. A 10 μL aliquot of sample was injected, and the column effluent was detected at 241 nm for probucol (eluted at 2.90 min) and 225 nm for phenytoin (eluted at 1.40 min) with a UV detector (1260 Infinity Multiple Wavelength Detector, Agilent). The standard curve linearity was verified from 0.1 to 1000 μg/mL with an r^2 value of at least 0.999.
# Two different drugs, probucol and phenytoin, were formulated at different weight percent, using the polymers disclosed herein (see Table 1 for polymer sample numbers). […]
SMILES,solubility [1] [µg/mL],Concentration (phenytoin dissolution control) ([2]; Time 0) [ng/mL],Concentration (phenytoin dissolution control) ([2]; Time 4) [ng/mL],Concentration (phenytoin dissolution control) ([2]; Time 10) [ng/mL],Concentration (phenytoin dissolution control) ([2]; Time 20) [ng/mL],Concentration (phenytoin dissolution control) ([2]; Time 40) [ng/mL],Concentration (phenytoin dissolution control) ([2]; Time 90) [ng/mL],Concentration (phenytoin dissolution control) ([2]; Time 180) [ng/mL],Concentration (phenytoin dissolution control) ([2]; Time 360) [ng/mL]
CC(C)(Sc1cc(C(C)(C)C)c(O)c(C(C)(C)C)c1)Sc1cc(C(C)(C)C)c(O)c(C(C)(C)C)c1 [probucol],4,,,,,,,,
"O=C1NC(=O)C(c2ccccc2)(c2ccccc2)N1 [Phenytoin, phenytoin]",,0,38000,46000,45000,48000,51000,45000,48000
